Test results taken from patent US11408885B2, “Compositions and multiplex assays for characterizing active proteases and their inhibitors” (Massachusetts Institute of Technology, priority 2017, dated 2022).
pIC50: −log10 of the molar value.

Assays:
[1] = system: proteases in peritoneal fluid of control donors and endometriosis patients; assay: FRET substrate cleavage in clarified peritoneal fluid; assay type: biochemical, human; conditions: peritoneal fluids of six control donors and six endometriosis patients; 500 nM or 1500 nM HxBP-Bt
Excerpt: Clarified peritoneal fluid from patients with endometriosis was compared to that from a control population with regards to the active MMP compositions and quantities. Peritoneal fluid is a mixture of cell debris, leukocytes, and thousands of soluble proteins including over 100 proteases and protease inhibitors that is contained within the pelvic cavity and interacts with endometriotic lesions (Amon, et al, PLoS ONE, 5(6) (2010)).
All laparoscopy patients provided informed consent in accordance with a protocol approved by the Partners Human Research Committee and the Massachusetts Institute of Technology Committee on the Use of Humans as Experimental Subjects. Enrollment was limited to pre-menopausal women with regular cycles (26-32 days) and excluded individuals who had received hormonal treatment within three months of surgery. Moderate/Severe (Stage III/IV) endometriosis was diagnosed according to the revised criteria of the American Society for Reproductive Medicine 8. Peritoneal fluid was aspirated from the rectouterine pouch immediately following trocar insertion and prior to peritoneal lavage or surgical manipulation. Upon collection, specimens were immediately placed on wet ice and clarified within 15 min. by centrifugation for 10 min. at 1000 rcf. Clarified aspirates were transported to the laboratory on ice, aliquoted, and stored at −80° C. until analysis.

MMP1 = target: T1, MMP1 (Homo sapiens, UniProt P03956); assay: FRET substrate cleavage by recombinant MMP, inhibition by activity-based probe; assay type: biochemical; parameters: purchased Peprotech; conditions: FRET substrate PEPDAB008 10 μM, read-out: IC50, inhibition of substrate cleavage of active MMP
T1 sequence (P03956 100-469): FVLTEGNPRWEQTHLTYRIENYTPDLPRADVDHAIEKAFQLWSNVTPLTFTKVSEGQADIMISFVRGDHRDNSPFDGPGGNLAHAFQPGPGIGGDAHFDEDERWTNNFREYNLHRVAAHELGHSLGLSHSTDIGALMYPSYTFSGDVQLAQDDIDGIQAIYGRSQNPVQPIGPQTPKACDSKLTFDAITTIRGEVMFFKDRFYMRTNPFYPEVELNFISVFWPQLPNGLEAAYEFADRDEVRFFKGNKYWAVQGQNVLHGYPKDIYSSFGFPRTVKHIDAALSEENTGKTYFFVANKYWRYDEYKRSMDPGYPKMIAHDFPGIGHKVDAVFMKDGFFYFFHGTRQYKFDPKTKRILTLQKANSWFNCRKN
Excerpt: (§1) The binding of an activity-based probe, e.g., HxBP-Bt, to the active site of an MMP (as shown in FIG. 1A) would effectively reduce (or inhibit) the ability of such MMP to cleave its substrate. […] This correlation should also provide an IC50 value to measure the sensitivity/potency of the MAMBI system to bind, and thereby quantify, active MMPs. […] Fluorescence resonance energy transfer (FRET) technique is used to determine if a substrate is cleaved by pre-labeling two parts of a substrate molecule with a donor chromophore and an acceptor chromophore, respectively, and measuring the energy transfer efficiency from the donor to the acceptor chromophore to determine if two fluorophores are within a certain distance of each other, i.e. the substrate is intact and uncleaved. Here, HxBP-Bt bound MMP samples were mixed with chromophore-labeled substrate peptides in 384-well OptiPlates® at 37° C. using timelapse fluorimetry in the Spectromax® M3 and M2e fluorimeters (Molecular Devices). The fluorescence was monitored by plate reader. In general, readings measured fluorescence every 20 minutes for roughly five hours and the reported rate of increase in fluorescence was calculated from fitting a linear portion of this increase including at least 4 data points and subtracting the average increase in background, protease-free conditions. […] Reaction velocities were calculated from linear reaction periods from raw fluorescence value time courses. […] Relative rates of FRET substrate cleavage among samples with the addition of HxBP-Bt were quantified and compared with the rates without HxBP-Bt. Activities of recombinant MMPs 1, 7, 8, 12 and 13, in the presence or absence of HxBP-Bt probe, were characterized with […]008 (Dabcyl-[…]); MMPs 2 and 9 with […]011 (Dabcyl-[…]) and MMPs 3 and 10 with […]052 (Dabcyl-[…]). […] These IC50 values were used to estimate binding off-rates in the computational model. IC50 of the inhibitor was calculated by fitting the resulting dose-dependent data with the PRISM software (GraphPad, USA)

MMP2 = target: T2, MMP2 (Homo sapiens, UniProt P08253); assay: as above; assay type: biochemical; parameters: purchased Peprotech; conditions: FRET substrate PEPDAB011 10 μM, read-out: IC50, inhibition of substrate cleavage of active MMP
T2 sequence (P08253 110-660): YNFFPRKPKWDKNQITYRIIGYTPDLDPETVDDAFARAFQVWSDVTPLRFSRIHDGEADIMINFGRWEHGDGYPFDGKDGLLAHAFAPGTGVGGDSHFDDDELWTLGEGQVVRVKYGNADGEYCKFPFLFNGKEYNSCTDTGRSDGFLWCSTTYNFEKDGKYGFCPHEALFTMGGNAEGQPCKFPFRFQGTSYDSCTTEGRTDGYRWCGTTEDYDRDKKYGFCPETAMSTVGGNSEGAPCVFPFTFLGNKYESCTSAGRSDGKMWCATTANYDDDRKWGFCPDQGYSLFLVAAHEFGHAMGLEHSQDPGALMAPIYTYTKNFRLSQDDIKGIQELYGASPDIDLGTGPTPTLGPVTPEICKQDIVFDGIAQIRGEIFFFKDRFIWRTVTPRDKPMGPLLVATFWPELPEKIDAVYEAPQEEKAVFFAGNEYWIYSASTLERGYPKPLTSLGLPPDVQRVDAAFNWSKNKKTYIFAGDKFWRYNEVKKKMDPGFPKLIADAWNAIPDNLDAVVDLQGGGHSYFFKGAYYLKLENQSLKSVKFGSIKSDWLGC
Excerpt: as §1

MMP3 = MMP3 (Homo sapiens, UniProt P08254); assay: as above; assay type: biochemical; parameters: purchased Peprotech; conditions: FRET substrate PEPDAB052 10 μM, read-out: IC50, inhibition of substrate cleavage of active MMP
Sequence of MMP3 (P08254 100-477): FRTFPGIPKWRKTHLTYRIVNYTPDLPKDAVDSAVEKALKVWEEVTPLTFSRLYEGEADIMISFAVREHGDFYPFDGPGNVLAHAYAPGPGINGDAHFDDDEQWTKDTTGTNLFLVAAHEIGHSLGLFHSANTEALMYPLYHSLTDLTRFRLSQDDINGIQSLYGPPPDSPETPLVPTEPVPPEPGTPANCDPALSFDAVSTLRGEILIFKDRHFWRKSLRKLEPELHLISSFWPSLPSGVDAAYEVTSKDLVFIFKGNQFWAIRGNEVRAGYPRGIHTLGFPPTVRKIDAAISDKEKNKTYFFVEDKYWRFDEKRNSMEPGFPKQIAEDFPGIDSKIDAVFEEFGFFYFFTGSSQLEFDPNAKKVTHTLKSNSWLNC
Excerpt: as §1

MMP12 = MMP12 (Homo sapiens, UniProt P39900); assay: as above; assay type: biochemical; parameters: The recombinant catalytic domains of human MMPs 7 and 9 were purchased from Enzo Life Sciences, and of MMP 12 from Anaspec; purchased Anaspec; conditions: FRET substrate PEPDAB008 10 μM, read-out: IC50, inhibition of substrate cleavage of active MMP
Sequence of MMP12 (P39900 106-263 limits assumed): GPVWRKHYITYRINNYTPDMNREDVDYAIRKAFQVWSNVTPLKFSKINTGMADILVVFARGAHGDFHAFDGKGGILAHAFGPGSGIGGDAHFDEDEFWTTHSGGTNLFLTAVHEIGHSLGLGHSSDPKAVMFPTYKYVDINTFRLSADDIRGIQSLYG
Excerpt: The binding of an activity-based probe, e.g., HxBP-Bt, to the active site of an MMP (as shown in FIG. 1A) would effectively reduce (or inhibit) the ability of such MMP to cleave its substrate. […] This correlation should also provide an IC50 value to measure the sensitivity/potency of the MAMBI system to bind, and thereby quantify, active MMPs. […] Fluorescence resonance energy transfer (FRET) technique is used to determine if a substrate is cleaved by pre-labeling two parts of a substrate molecule with a donor chromophore and an acceptor chromophore, respectively, and measuring the energy transfer efficiency from the donor to the acceptor chromophore to determine if two fluorophores are within a certain distance of each other, i.e. the substrate is intact and uncleaved. […] The fluorescence was monitored by plate reader. In general, readings measured fluorescence every 20 minutes for roughly five hours and the reported rate of increase in fluorescence was calculated from fitting a linear portion of this increase including at least 4 data points and subtracting the average increase in background, protease-free conditions. […] Reaction velocities were calculated from linear reaction periods from raw fluorescence value time courses. […] Relative rates of FRET substrate cleavage among samples with the addition of HxBP-Bt were quantified and compared with the rates without HxBP-Bt. […]

- pIC50 (MMP1): 8.68
- pIC50 (MMP2): 8.48
- pIC50 (MMP3): 7.21
- pIC50 (MMP12): 8.40
Compound: CC(C)CC(C(=O)NC(Cc1ccc(C(=O)c2ccccc2)cc1)C(=O)NCCOCCOCCOCC(=O)NCC(C)(C)SSC(C)(C)CNC(=O)CCCCC1SCC2NC(=O)NC21)C(O)C(=O)NO (centres unmarked) [HxBP-Bt, biotin-tagged hydroxamate benzophenone (HxBP-Bt) probe]
- effect on substrate cleavage [1]: inhibited substrate cleavage in all samples
